Measured values: the supplement of paper PMC10307832

What was measured:
Assay in all cases: relative viability (nuclei count vs DMSO), 5 days (fraction); higher = more cells survive
PC-3 [JPC-3] = tested on: PC-3 [JPC-3]
In short: (§1)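 Lung cancer cell lines were pin-tool dosed in 1536-well plates on the day after seeding, with either a lone drug or a fixed anchor-drug dose plus five library-drug doses (not always all listed) in √10 steps. Nuclei were counted on 4× images after 5 days. Relative viability is the ratio of treated-well to vehicle-well nuclei counts, with each value a median of duplicate plates.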

HCC-15 = tested on: HCC-15
In short: as §1

UMC-11 = tested on: UMC-11
In short: as §1

LC-2-ad = tested on: LC-2-ad
In short: as §1

ChaGo-K-1 = tested on: ChaGo-K-1
In short: as §1

NCI-H2087 = tested on: NCI-H2087
In short: as §1

NCI-H838 = tested on: NCI-H838
In short: as §1

H3255 = tested on: H3255
In short: as §1

NCI-H1666 = tested on: NCI-H1666
In short: as §1

LXF-289 = tested on: LXF-289
In short: as §1

LK-2 = tested on: LK-2
In short: as §1

LCLC-97TM1 = tested on: LCLC-97TM1
In short: as §1

NCI-H1651 = tested on: NCI-H1651
In short: as §1

NCI-H596 = tested on: NCI-H596
In short: as §1

SK-MES-1 = tested on: SK-MES-1
In short: as §1

BEN = tested on: BEN
In short: as §1

NCI-H322M = tested on: NCI-H322M
In short: as §1

NCI-H1944 = tested on: NCI-H1944
In short: as §1

HCC-78 = tested on: HCC-78
In short: as §1

LU99A = tested on: LU99A
In short: as §1

SMILES: COc1cc(N2CCC(C(N)=O)CC2)ccc1Nc1nc(N)c(Cl)c(Nc2ccccc2S(=O)(=O)C(C)C)n1 [HG-5-88-01] + CC1(C)CCC(c2ccc(Cl)cc2)=C(CN2CCN(c3ccc(C(=O)NS(=O)(=O)c4ccc(N[C@H](CCN5CCOCC5)CSc5ccccc5)c(S(=O)(=O)C(F)(F)F)c4)cc3)CC2)C1 [Navitoclax] (partner 0.5 µM)
- relative viability (PC-3 [JPC-3]; first compound 0.04 µM): 0.837
- relative viability (PC-3 [JPC-3]; first compound 0.1265 µM): 0.83
- relative viability (PC-3 [JPC-3]; first compound 0.4 µM): 0.841
- relative viability (PC-3 [JPC-3]; first compound 1.265 µM): 0.753
- relative viability (PC-3 [JPC-3]; first compound 4 µM): 0.751
- relative viability (HCC-15; first compound 0.04 µM): 0.702
- relative viability (HCC-15; first compound 0.1265 µM): 0.74
- relative viability (HCC-15; first compound 0.4 µM): 0.672
- relative viability (HCC-15; first compound 1.265 µM): 0.723
- relative viability (HCC-15; first compound 4 µM): 0.464
- relative viability (UMC-11; first compound 0.04 µM): 0.338
- relative viability (UMC-11; first compound 0.1265 µM): 0.376
- relative viability (UMC-11; first compound 0.4 µM): 0.333
- relative viability (UMC-11; first compound 1.265 µM): 0.322
- relative viability (UMC-11; first compound 4 µM): 0.303
- relative viability (LC-2-ad; first compound 0.04 µM): 0.444
- relative viability (LC-2-ad; first compound 0.1265 µM): 0.45
- relative viability (LC-2-ad; first compound 0.4 µM): 0.477
- relative viability (LC-2-ad; first compound 1.265 µM): 0.379
- relative viability (LC-2-ad; first compound 4 µM): 0.278
- relative viability (ChaGo-K-1; first compound 0.04 µM): 1.05
- relative viability (ChaGo-K-1; first compound 0.1265 µM): 1.09
- relative viability (ChaGo-K-1; first compound 0.4 µM): 0.726
- relative viability (ChaGo-K-1; first compound 1.265 µM): 1.12
- relative viability (ChaGo-K-1; first compound 4 µM): 0.762
- relative viability (NCI-H2087; first compound 0.04 µM): 0.902
- relative viability (NCI-H2087; first compound 0.1265 µM): 1.06
- relative viability (NCI-H2087; first compound 0.4 µM): 1.03
- relative viability (NCI-H2087; first compound 1.265 µM): 0.971
- relative viability (NCI-H2087; first compound 4 µM): 0.943
- relative viability (NCI-H838; first compound 0.04 µM): 1.09
- relative viability (NCI-H838; first compound 0.1265 µM): 1.2
- relative viability (NCI-H838; first compound 0.4 µM): 1.07
- relative viability (NCI-H838; first compound 1.265 µM): 0.973
- relative viability (NCI-H838; first compound 4 µM): 0.904
- relative viability (H3255; first compound 0.04 µM): 0.506
- relative viability (H3255; first compound 0.1265 µM): 0.467
- relative viability (H3255; first compound 0.4 µM): 0.428
- relative viability (H3255; first compound 4 µM): 0.138
- relative viability (NCI-H1666; first compound 0.04 µM): 1.14
- relative viability (NCI-H1666; first compound 0.1265 µM): 1.01
- relative viability (NCI-H1666; first compound 0.4 µM): 1.01
- relative viability (NCI-H1666; first compound 1.265 µM): 0.877
- relative viability (NCI-H1666; first compound 4 µM): 0.603
- relative viability (LXF-289; first compound 0.04 µM): 0.937
- relative viability (LXF-289; first compound 0.1265 µM): 0.979
- relative viability (LXF-289; first compound 0.4 µM): 0.972
- relative viability (LXF-289; first compound 1.265 µM): 1.01
- relative viability (LXF-289; first compound 4 µM): 1.02
- relative viability (LK-2; first compound 0.04 µM): 0.872
- relative viability (LK-2; first compound 0.1265 µM): 1.03
- relative viability (LK-2; first compound 0.4 µM): 0.805
- relative viability (LK-2; first compound 1.265 µM): 0.377
- relative viability (LK-2; first compound 4 µM): 0.541
- relative viability (LCLC-97TM1; first compound 0.04 µM): 0.374
- relative viability (LCLC-97TM1; first compound 0.1265 µM): 0.689
- relative viability (LCLC-97TM1; first compound 0.4 µM): 0.347
- relative viability (LCLC-97TM1; first compound 1.265 µM): 0.296
- relative viability (LCLC-97TM1; first compound 4 µM): 0.321
- relative viability (NCI-H1651; first compound 0.04 µM): 1.27
- relative viability (NCI-H1651; first compound 0.1265 µM): 1.04
- relative viability (NCI-H1651; first compound 0.4 µM): 1.08
- relative viability (NCI-H1651; first compound 1.265 µM): 1.05
- relative viability (NCI-H1651; first compound 4 µM): 1.04
- relative viability (NCI-H596; first compound 0.04 µM): 0.943
- relative viability (NCI-H596; first compound 0.1265 µM): 0.98
- relative viability (NCI-H596; first compound 0.4 µM): 1.06
- relative viability (NCI-H596; first compound 1.265 µM): 1.02
- relative viability (NCI-H596; first compound 4 µM): 0.901
- relative viability (SK-MES-1; first compound 0.04 µM): 1.17
- relative viability (SK-MES-1; first compound 0.1265 µM): 1.29
- relative viability (SK-MES-1; first compound 0.4 µM): 1.2
- relative viability (SK-MES-1; first compound 1.265 µM): 1.21
- relative viability (SK-MES-1; first compound 4 µM): 1.03
- relative viability (BEN; first compound 0.04 µM): 0.0887
- relative viability (BEN; first compound 0.1265 µM): 0.0551
- relative viability (BEN; first compound 0.4 µM): 0.0596
- relative viability (BEN; first compound 1.265 µM): 0.0568
- relative viability (BEN; first compound 4 µM): 0.0605
- relative viability (NCI-H322M; first compound 0.04 µM): 1.16
- relative viability (NCI-H322M; first compound 0.1265 µM): 1.21
- relative viability (NCI-H322M; first compound 0.4 µM): 1.18
- relative viability (NCI-H322M; first compound 1.265 µM): 0.907
- relative viability (NCI-H322M; first compound 4 µM): 1.26
- relative viability (NCI-H1944; first compound 0.04 µM): 1.03
- relative viability (NCI-H1944; first compound 0.1265 µM): 1.15
- relative viability (NCI-H1944; first compound 0.4 µM): 1.11
- relative viability (NCI-H1944; first compound 1.265 µM): 0.985
- relative viability (NCI-H1944; first compound 4 µM): 1.04
- relative viability (HCC-78; first compound 0.04 µM): 0.749
- relative viability (HCC-78; first compound 0.1265 µM): 0.555
- relative viability (HCC-78; first compound 0.4 µM): 0.363
- relative viability (HCC-78; first compound 1.265 µM): 0.158
- relative viability (HCC-78; first compound 4 µM): 0.297
- relative viability (LU99A; first compound 0.04 µM): 0.781
- relative viability (LU99A; first compound 0.1265 µM): 0.96
- relative viability (LU99A; first compound 0.4 µM): 0.75
- relative viability (LU99A; first compound 1.265 µM): 0.764
- relative viability (LU99A; first compound 4 µM): 0.996
